Experimental data as given in article PMC10005185, “Structure-guided engineering of a receptor-agonist pair for inducible activation of the ABA adaptive response to drought” (Science Advances, 2023).

Key:
[1] = system: Nicotiana benthamiana WT plants; test: IR thermography of leaf temperature, N. benthamiana; format: in vivo; settings: nontransformed leaves, 24 hours after spraying, 50 μM ABA or 100 μM iSB07 or iSB09, compared to mock
Experimental: IR images were taken using a FLIR […] thermocamera 1 day after the treatment (for N. benthamiana) or 2 and 5 days (for S. lycopersicum). Quantification was performed using the FLIR tools software on fully expanded leaves by analyzing 10 sections per leaf. At least six plants per genotype and treatment were analyzed in each experiment. Experiments were repeated twice. The average plant temperature ± SD of all the plants for each treatment and genotype was calculated and used to report the increase in temperature produced by each treatment. Statistical comparisons among genotypes were performed by either pairwise t tests or one-way ANOVA.

ΔNHAB1 with AtPYL1 = molecular target: T1, ΔNHAB1 with AtPYL1 (Arabidopsis thaliana, UniProt Q8VZS8); test: PP2C inhibition assay, HAB1 with AtPYL1; format: biochemical; settings: read-out: inhibition of HAB1
T1 construct: His; made in house
T1 sequence (Q8VZS8 whole entry, stated change not applied): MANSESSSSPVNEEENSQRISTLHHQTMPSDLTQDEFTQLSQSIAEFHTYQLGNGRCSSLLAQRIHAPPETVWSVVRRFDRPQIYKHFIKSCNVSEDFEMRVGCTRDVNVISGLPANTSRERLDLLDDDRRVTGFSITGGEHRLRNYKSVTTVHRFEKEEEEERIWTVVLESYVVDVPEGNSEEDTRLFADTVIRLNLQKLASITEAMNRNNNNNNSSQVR
Experimental: His-tagged receptors and phosphatases were purified using nickel–nitrilotriacetic acid (Ni-NTA) affinity chromatography. Protein integrity was analyzed by SDS–polyacrylamide gel electrophoresis, followed by InstantBlue staining. Phosphatase activity was measured using p-Nitrophenyl Phosphate (pNPP) (25 mM) as substrate, 10 mM MnCl2,1 μM PP2C, and 2 μM of the indicated receptors. Proteins were incubated with the ligands for 10 min at room temperature. pNPP was then added to start the reactions, and the absorbance at 405 nm was monitored for 20 min in a ViktorX5 plate reader. Assays were repeated twice. For dose-response experiments, IC50 values were obtained with GraphPad Prism 9 using a nonlinear regression curve fit. Each ligand concentration was tested in triplicate. Phosphatase activity of ABI1 was measured using RRA(phosphoT)VA peptide as a substrate, as described ([27]).

CCn1c(=O)cc(C)c2cc(CNS(=O)(=O)c3ccccc3)ccc21 [iSB09]
leaf temperature by thermal imaging [1]: increased leaf temperature
inhibition at 1 µM (ΔNHAB1 with AtPYL1): 60 to 70%
